Test results taken from patent US11088380B2, “Electrolyte solution for redox flow battery and redox flow battery comprising same” (Seoul National University R&DB Foundation, priority 2013, dated 2021).
≈ marks a conversion by molar mass, not a printed value.

Experiment: physchem
Conditions: not given
Method: Menadione purchased from Sigma Aldrich was dissolved in propylene carbonate solution comprising tetrafluoroborate tetraethylammonium and the maximum amount of Menadione that can be dissolved was checked.
1,4-Naphthoquinone purchased from Sigma Aldrich was dissolved in propylene carbonate solution comprising tetrafluoroborate tetraethylammonium and the maximum amount of 1,4-Naphthoquinone that can be dissolved was checked.
N,N,N′N′-tetramethyl-p-phenylenediamine purchased from Alfa aesar was dissolved in propylene carbonate solution comprising tetrafluoroborate tetraethylammonium and the maximum amount of N,N,N′N′-tetramethyl-p-phenylenediamine that can be dissolved was checked.
Tetrathiafulvalene purchased from Sigma Aldrich was dissolved in propylene carbonate solution comprising tetrafluoroborate tetraethylammonium and the maximum amount of tetrathiafulvalene that can be dissolved was checked.
N,N-dimethyl-p-phenylenediamine purchased from Sigma Aldrich was dissolved in propylene carbonate solution comprising tetrafluoroborate tetraethylammonium and the maximum amount of N,N-dimethyl-p-phenylenediamine that can be dissolved was checked.
Triphenylamine purchased from Sigma Aldrich was dissolved in propylene carbonate solution comprising tetrafluoroborate tetraethylammonium and the maximum amount of triphenylamine that can be dissolved was checked.
4-Hydroxydiphenylamine purchased from Sigma Aldrich was dissolved in propylene carbonate solution comprising tetrafluoroborate tetraethylammonium and the maximum amount of 4-hydroxydiphenylamine that can be dissolved was checked.
4-Amino-diphenylamine purchased from Sigma Aldrich was dissolved in propylene carbonate solution comprising tetrafluoroborate tetraethylammonium and the maximum amount of 4-amino-diphenylamine that can be dissolved was checked.
Thianthrene purchased from Aldrich was dissolved in propylene carbonate solution comprising tetrafluoroborate tetraethylammonium and the maximum amount of thianthrene that can be dissolved was checked.

solubility | SMILES
4000 mM (≈ 737 mg/mL) | Nc1ccc(Nc2ccccc2)cc1 [Example 9, 4-amino-diphenylamine]
600 mM (≈ 123 mg/mL) | C1=CSC(=C2SC=CS2)S1 [Example 5, Tetrathiafulvalene]

Same assay, conditions: maximum amount dissolved in propylene carbonate solution comprising tetrafluoroborate tetraethylammonium

SMILES | solubility
Oc1ccc(Nc2ccccc2)cc1 [Example 8, 4-hydroxydiphenylamine] | 4000 mM (≈ 741 mg/mL)
CN(C)c1ccc(N(C)C)cc1 [Example 4, N,N,N′N′-tetramethyl-p-phenylenediamine] | 2000 mM (≈ 329 mg/mL)

Same assay, conditions: organic solvent or mixture, thermodynamic from solid

SMILES | solubility
O=C1C=CC(=O)c2ccccc21 [Example 3, 1,4-Naphthoquinone] | 500 mM (≈ 79.1 mg/mL)
CN(C)c1ccc(N)cc1 [Example 6, N,N-dimethyl-p-phenylenediamine] | 2000 mM (≈ 272 mg/mL)
c1ccc2c(c1)Sc1ccccc1S2 [Comparative example 2, Thianthrene, reference compound] | 100 mM (≈ 21.6 mg/mL)

Continued, values first:

solubility | SMILES
< 100 mM | c1ccc(N(c2ccccc2)c2ccccc2)cc1 [Example 7, Triphenylamine]
300 mM (≈ 51.7 mg/mL) | CC1=CC(=O)c2ccccc2C1=O [Example 2, menadione]
